Results from ChEMBL document CHEMBL3885861, “Open TG-GATES”.

Species on record: Rattus norvegicus
Test: Open TG-GATES - Regimen: Single
Assay type: toxicity, organism-based, Sprague-Dawley
Parameters: regimen Single, gender Male, age 6 weeks
Conditions: in vivo, po, 25 mg/kg, route gavage, dose level Middle; for APTT / Bas / Eos / Fbg / Hb / Ht / Lym / MCH / MCHC / MCV / Mono / Neu / PT / Plat / RBC / Ret / WBC: tissue Blood; for KIDNEY_L / KIDNEY_R / KIDNEY_TOTAL: tissue Kidney; for LIVER: tissue Liver; for A/G / ALP / ALT / AST / BUN / CRE / Ca / Cl / DBIL / GLC / IP / K / LDH / Na / PL / RALB / TBIL / TC / TG / TP / gamma-GTP: tissue Plasma

In the case of NC1=NC(=O)C(c2ccccc2)O1 (stereo unspecified) [PEMOLINE], the TERMINAL_BW (9 h) is reported as 212 g, the APTT (9 h) is reported as 16 s and the Bas (9 h) is reported as 0%. For the same compound, the Eos (9 h) was 0.6%, the Fbg (9 h) was 316.2 mg/dL and the Hb (9 h) was 13.7 g/dL. The Ht (9 h) was 40.4%, the Lym (9 h) was 75.2% and the MCH (9 h) was 21.7 pg. For the same compound, the MCHC (9 h) was 33.8%, the MCV (9 h) was 64.2 fL and the Mono (9 h) was 2.4%. The Neu (9 h) was 21.2%, the PT (9 h) was 13.4 s and the Plat (9 h) was 112 x10_4/uL. For the same compound, the RBC (9 h) was 630.8 x10_4/ul, the Ret (9 h) was 9.7% and the WBC (9 h) was 91.7 x10_2/uL. For the same compound, the KIDNEY_L (9 h) was 0.9 g, the KIDNEY_R (9 h) was 0.9 g and the KIDNEY_TOTAL (9 h) was 1.7 g. For the same compound, the LIVER (9 h) was 8.1 g, the A/G (9 h) was 1 and the ALP (9 h) was 1640.8 IU/L. The ALT (9 h) was 40.2 IU/L, the AST (9 h) was 83.4 IU/L and the BUN (9 h) was 8.6 mg/dL. The CRE (9 h) was 0.2 mg/dL, the Ca (9 h) was 10.6 mg/dL and the Cl (9 h) was 106.4 meq/L. For the same compound, the DBIL (9 h) was 0.014 mg/dL, the GLC (9 h) was 191.6 mg/dL and the IP (9 h) was 9.7 mg/dL. For the same compound, the K (9 h) was 3.8 meq/L, the LDH (9 h) was 94.4 IU/L and the Na (9 h) was 141.4 meq/L. It also gave a PL (9 h) of 137 mg/dL, an RALB (9 h) of 2.8 g/dL and a TBIL (9 h) of 0.044 mg/dL. The TC (9 h) was 86.8 mg/dL, the TG (9 h) was 27.2 mg/dL and the TP (9 h) was 5.6 g/dL. The gamma-GTP (9 h) was 1.4 IU/L, the TERMINAL_BW (24 h) was 209.6 g and the APTT (24 h) was 16.3 s. For the same compound, the Bas (24 h) was 0%, the Eos (24 h) was 1% and the Fbg (24 h) was 290 mg/dL. For the same compound, the Hb (24 h) was 12.9 g/dL, the Ht (24 h) was 37.6% and the Lym (24 h) was 80.4%. For the same compound, the MCH (24 h) was 21.9 pg, the MCHC (24 h) was 34.3% and the MCV (24 h) was 63.7 fL. For the same compound, the Mono (24 h) was 3.6%, the Neu (24 h) was 14.4% and the PT (24 h) was 13 s. It also gave a Plat (24 h) of 107.2 x10_4/uL, an RBC (24 h) of 589 x10_4/ul and a Ret (24 h) of 8.2%. The WBC (24 h) was 73.1 x10_2/uL, the KIDNEY_L (24 h) was 0.9 g and the KIDNEY_R (24 h) was 0.9 g. It also gave a KIDNEY_TOTAL (24 h) of 1.8 g, an LIVER (24 h) of 9.3 g and an A/G (24 h) of 1. For the same compound, the ALP (24 h) was 1533.8 IU/L, the ALT (24 h) was 46.6 IU/L and the AST (24 h) was 87.8 IU/L. For the same compound, the BUN (24 h) was 15.4 mg/dL, the CRE (24 h) was 0.2 mg/dL and the Ca (24 h) was 10.6 mg/dL. It also gave a Cl (24 h) of 104.4 meq/L, a DBIL (24 h) of 0.014 mg/dL and a GLC (24 h) of 176.8 mg/dL. For the same compound, the IP (24 h) was 8.8 mg/dL, the K (24 h) was 4.2 meq/L and the LDH (24 h) was 71.6 IU/L. It also gave a Na (24 h) of 140.6 meq/L, a PL (24 h) of 128.2 mg/dL and an RALB (24 h) of 2.7 g/dL. For the same compound, the TBIL (24 h) was 0.032 mg/dL, the TC (24 h) was 78 mg/dL and the TG (24 h) was 50 mg/dL. It also gave a TP (24 h) of 5.4 g/dL and a gamma-GTP (24 h) of 1 IU/L.
